Measured values as given in the supplement of paper PMC11451515.

How the values were obtained:
Details in all cases: 48 h
SEM cells [1] = experiment: AUC of viability dose-response curve (% viability x log10 dose units); higher = less sensitive
In short: (§1)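 Leukemia cells adapted to each medium were seeded in 1536-well plates (500 or 1000 cells/well). They were dosed with library compounds in DMSO at 11 threefold doses, 47 μM to 0.79 nM, for 48 h at 37°C. CellTiter-Glo One luminescence was normalised per plate to DMSO and cell-free wells. Area under the curve was integrated by trapezoidal rule over log10 doses on a four-parameter log-logistic fit; curves exceeding full viability were scaled and curves failing quality control removed.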

P12-Ichikawa [2] = experiment: as above
In short: as §1

NOMO1 [3] = experiment: as above
In short: as §1

SEM cells [4] = experiment: cell viability relative to DMSO control; higher = less cytotoxic
In short: (§2)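 Viability is expressed as a percentage of DMSO wells within each plate, and cell-free wells serve as background. Seeding densities in the 1536-well plates (5 μl) were 500 cells/well for NOMO1 or SEM leukemia cells and 1000 cells/well for P12-Ichikawa. Each line was adapted for at least four passages in each medium. Library compounds in DMSO were pin-dosed at 47 μM to 0.79 nM (11 points, threefold), and CellTiter-Glo One luminescence was read after 48 h at 37°C.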

P12-Ichikawa [5] = experiment: as above
In short: as §2

NOMO1 [6] = experiment: as above
In short: as §2

COCCOc1nc(-c2ccc(Cl)c(Cl)c2)n(-c2ccc(NC(=O)CCl)cc2)n1
AUC of viability dose-response curve
Details	NOMO1 [3]	P12-Ichikawa [2]	SEM cells [1]
HPLM + 10% dialyzed FBS	460	469	444
RPMI 5 mM glucose + 10% FBS	408	450	430
RPMI 5 mM glucose + 10% dialyzed FBS	433	421	430

cell viability [%]
Details	NOMO1 [6]	P12-Ichikawa [5]	SEM cells [4]
HPLM + 10% dialyzed FBS, 0.000781 µM	92.5	96.6	85.5
HPLM + 10% dialyzed FBS, 0.00234 µM	113	97.3	95.4
HPLM + 10% dialyzed FBS, 0.00702 µM	110	102	87.5
HPLM + 10% dialyzed FBS, 0.0211 µM	114	103	103
HPLM + 10% dialyzed FBS, 0.0632 µM	113	103	104
HPLM + 10% dialyzed FBS, 0.19 µM	115	106	103
HPLM + 10% dialyzed FBS, 0.569 µM	96.6	99.1	94.2
HPLM + 10% dialyzed FBS, 1.71 µM	110	104	97.6
HPLM + 10% dialyzed FBS, 5.12 µM	87.2	84.4	83.6
HPLM + 10% dialyzed FBS, 15.4 µM	85	99.8	83.1
HPLM + 10% dialyzed FBS, 46.1 µM	107	98.5	84.6
RPMI 5 mM glucose + 10% FBS, 0.000781 µM	78.3	89.4	80
RPMI 5 mM glucose + 10% FBS, 0.00234 µM	86.9	101	106
RPMI 5 mM glucose + 10% FBS, 0.00702 µM	84.4	90.1	98.5
RPMI 5 mM glucose + 10% FBS, 0.0211 µM	82.7	104	89.9
RPMI 5 mM glucose + 10% FBS, 0.0632 µM	85	98.9	102
RPMI 5 mM glucose + 10% FBS, 0.19 µM	87.6	101	85.7
RPMI 5 mM glucose + 10% FBS, 0.569 µM	80.7	93.4	95.4
RPMI 5 mM glucose + 10% FBS, 1.71 µM	84.9	107	88
RPMI 5 mM glucose + 10% FBS, 5.12 µM	91.3	79.7	83.4
RPMI 5 mM glucose + 10% FBS, 15.4 µM	92.6	79.9	79.1
RPMI 5 mM glucose + 10% FBS, 46.1 µM	86.7	88.7	80.6
RPMI 5 mM glucose + 10% dialyzed FBS, 0.000781 µM	82.7	84.1	92.2
RPMI 5 mM glucose + 10% dialyzed FBS, 0.00234 µM	92.1	92.2	91.4
RPMI 5 mM glucose + 10% dialyzed FBS, 0.00702 µM	93.5	86.1	96.4
RPMI 5 mM glucose + 10% dialyzed FBS, 0.0211 µM	83.7	94.6	91
RPMI 5 mM glucose + 10% dialyzed FBS, 0.0632 µM	97.4	91.2	95.1
RPMI 5 mM glucose + 10% dialyzed FBS, 0.19 µM	87.5	93.7	102
RPMI 5 mM glucose + 10% dialyzed FBS, 0.569 µM	96.9	98.9	94.2
RPMI 5 mM glucose + 10% dialyzed FBS, 1.71 µM	93.9	86.4	81.6
RPMI 5 mM glucose + 10% dialyzed FBS, 5.12 µM	86.4	76	80.2
RPMI 5 mM glucose + 10% dialyzed FBS, 15.4 µM	79.7	77.8	80.2
RPMI 5 mM glucose + 10% dialyzed FBS, 46.1 µM	104	86.9	85.1
